Assay results: paper PMC5458078, “Global mapping of CARM1 substrates defines enzyme specificity and substrate recognition” (Nature Communications, 2017)

The substances below were run on MCF7 cells (assay: Quantitative nanoLC-MS/MS (TMT) of ADMA-containing peptides, CARM1 KO vs parental). Conditions: ADMA-containing peptide, CARM1 knockout (KO) vs wild type (WT) MCF7 cells; 6-plex TMT experiment #1; three biological replicates each; sheet "MCF7".
Type: cell-based, human
Design: Fold change KO/WT: scale not given here

First: AGPrLLLIPVQQGSPTLRPVSNTQLQGHrMVLQPVR
Second: AGPrLLLIPVQQGSPTLrPVSNTQLQGHrMVLQPVR
The “Fold change KO/WT” value of the first is higher: -0.6769 for the first, -0.8102 for the second.

First: AMLPGSPLFTrAPPPK
Second: FEGSPGLrFEGSPGGLrFEGPGGQPVGGLrFEGHR
The “Fold change KO/WT” value of the first is lower: -3.62 for the first, -0.8785 for the second.

Compared with MQLQQrLQGQQFLNQSrQALELK, QGSIGLYTQNQPLPAGGPRVDPYrPVRLPMQK is higher in “Fold change KO/WT” value: -3.454 for the first, -1.665 for the second.

First: QGSIGLYTQNQPLPAGGPrVDPYrPVRLPMQK
Second: QLrMQLQQR
The “Fold change KO/WT” value of the first is higher: -2.102 for the first, -2.307 for the second.

With QVTITGSAASISLAQYLINAr the “Fold change KO/WT” value was -0.8472.

Same assay, conditions: ADMA-containing peptide, MCF7, CARM1 knockout (KO1-3) vs wild type (WT1-3), TMT 6-plex experiment #1

Compared with “AFHDYSAAAAPSPVLGNIPPNDGMPGGPIPPGFFQPFMSPrYAGGPrPPIR”, “GrGTLTrGAFVGATAAPGYIAPGYGTPYGYSTAAPAYGLPKR” is higher in “Fold change KO/WT” value: -2.246 for the first, -0.6705 for the second.

Going from LISVQTMQrGNMNCGAFQAHQMR to LPPDRYCLTAPNYrLK, the “Fold change KO/WT” value falls from -0.03531 to -0.4021.

First: LQHMQQQQPPPrLINFQNHSPKPNGPVLPPHPQQLrYPPNQNIPR
Second: LSLPPIHTLYQPrFGNSQSFTSK
The “Fold change KO/WT” value of the first is higher: -0.9847 for the first, -2.191 for the second.

Compared with NrGFYPWGQYNrGGYGNYR, SYrGGGGGGGGWR is higher in “Fold change KO/WT” value: -0.1483 for the first, -0.08168 for the second.

Same assay, conditions: CARM1 KO vs parental MCF7 cells

For PABP1: a known CARM1 substrate, the “Decrease of ADMA site abundance on CARM1 loss” value was “slightly over twofold”.

Same assay, conditions: CARM1 KO vs wild type MCF7 cells, 3 biological replicates each

Going from AAGMTPLYAGQrLPQHGYPGPPQAQPLPrQGVK to FFHMPrFQHQAPrQLFYK, the “Fold change KO/WT” value rises from -1.882 to -1.814.

Going from GAEAANVTGPDGVPVEGSrYAADR to “GGrFSAQGMGTFNPADYAEPANTDDNYGNSSGNTWNNTGHFEPDDGTSAWR”, the “Fold change KO/WT” value rises from -1.299 to -0.4035.

Going from GSGTGIYSNAAPPPVTYQGNLYrPLLrGQAQIPK to LTrGQLQHLGTR, the “Fold change KO/WT” value rises from -4.659 to 0.1695.

First: PVPPPPAPPPPPTFALANTEKPTLNKTEQAGrNALLSDISK
Second: TEQAGrNALLSDISK
The “Fold change KO/WT” value of the first is higher: -1.049 for the first, -1.119 for the second.

With “TYSEVYPGQQYLQGGQYAPSTAQFAPSPGQPPAPSPSYPGHrLPLQQGMTQSLSVPGPTGLHYKPTR” the “Fold change KO/WT” value was -2.904.

Same assay, conditions: MCF7, CARM1 KO (KO1-KO3) vs wild type (WT1-WT3)

Compared with AGGAASGGGGNSWDLPGSHVrLPGR, AGIGVYWGPGHPLNVGIrLPGR is lower in “Fold change KO/WT” value: -0.8314 for the first, -0.8432 for the second.

Going from “FLQPrLAPNQPPPPLIrPALAAPRHSARPGPQPPPTLIGTPLEPPAPSL” to “MGTPVPRPPQDMGQIGVRTPLGPrVAAPVGPVGPTPTVLPMGAPVPrPrGPPPPPGDENR”, the “Fold change KO/WT” value falls from -2.908 to -3.578.

Going from “MGTPVPRPPQDMGQIGVrTPLGPRVAAPVGPVGPTPTVLPMGAPVPrPR” to “MGTPVPRPPQDMGQIGVrTPLGPrVAAPVGPVGPTPTVLPMGAPVPrPRGPPPPPGDENR”, the “Fold change KO/WT” value rises from -3.4667 to -1.953.

Going from MGTPVPrPPQDMGQIGVRTPLGPR to SYSrGGGDQGYGSGR, the “Fold change KO/WT” value rises from -2.466 to -0.3099.

In the case of TGFTNIPSrYGTNNR, the “Fold change KO/WT” value is reported as -2.195.

Same assay, conditions: MCF7, CARM1 KO vs WT, three biological replicates each

Compared with AGGLLGTGSGLNLrMAGPQGLDLAPILR, AGSQGGrGGGAQAAAR is higher in “Fold change KO/WT” value: -3.029 for the first, 0.4231 for the second.

Compared with DLYANTVLSGGSTMYPGIADr, EELLrHQLLEKR is lower in “Fold change KO/WT” value: 0.2012 for the first, -2.786 for the second.

Going from LPNRDFAFYNPrLQGK to “MrPQPYGGTNPYSQQQGPPSGPQQGHGYPGQPYGSQTPQrYPMTMQGR”, the “Fold change KO/WT” value falls from -1.34 to -3.351.

Going from “RPQLYGMGSNPHSQPQQSSPYPGGSYGPPGPQrYPIGIQGR” to SPYTTTRYGSPINTFTVrPGTR, the “Fold change KO/WT” value falls from -1.511 to -3.3255.

Compared with “TGALPGPGPLSNPrLGGLPGPGPMSNPrAGGLLGAGPDPR”, “TGALPGPGPLSNPrLGGLPGPGPMSNPrAGGLLGAGPDPrGGGPMGPGSGPNLR” is higher in “Fold change KO/WT” value: -2.931 for the first, -2.513 for the second.

For TLLrGGMSLrGQNLLrGGR, the “Fold change KO/WT” value was 0.06328.

Same assay, conditions: MCF7, CARM1 knockout vs wild type, n = 3 each

First: AYSSFGGGrGSR
Second: CAGFLEPTWLAAPPRLArPPR
The “Fold change KO/WT” value of the first is higher: -0.1369 for the first, -1.124 for the second.

Going from GPSGGYrGSGGFQrGGGrGAYGTGYFGQGR to LDrICEGIRPQIMNGPLHPRPLVALLDGR, the “Fold change KO/WT” value falls from 0.2112 to -0.535.

First: QQQQQQQQQQQQLDLLFHQrIQISLWPR
Second: SAGGRPGSGPQLGTGrGTLR
The “Fold change KO/WT” value of the first is lower: -2.494 for the first, -0.3785 for the second.

Going from SNSGPYrGGYGGGGGYGGSSF to SSGSPYGGGYGSGGGSGGYGSrRF, the “Fold change KO/WT” value falls from -0.1493 to -0.5008.

Same assay, conditions: MCF7 CARM1 knockout vs wild type, 3 biological replicates each; values are on log2 scale

First: ACLTSGTPGPrAQLTAVTPDTR
Second: AFSSrSYTSGPGSrISSSSFSR
The “Fold change KO/WT” value of the first is lower: -1.3764 for the first, -1.022 for the second.

Going from AYGQQYWGQPGNrGGYR to DLVILLYETALLSSDFGLEGPQTHANr, the “Fold change KO/WT” value rises from -0.04736 to 0.05306.

First: GGFQNrGGGSGGGGNYrGGFNR
Second: GPQWKRGArGGNLVTGTQr
The “Fold change KO/WT” value of the first is higher: 0.1419 for the first, -0.2728 for the second.

First: GTPVrGAITR
Second: INPGLEYrQHLLLR
The “Fold change KO/WT” value of the first is higher: -0.02001 for the first, -1.551 for the second.

First: INPGLEYrQHLLLrGPPPGSANPPR
Second: LLGQRPGPYDrPIGGRGGYYGAGrGSMYDR
The “Fold change KO/WT” value of the first is lower: -0.6044 for the first, 0.09272 for the second.

First: LLGQRPGPYDrPIGGrGGYYGAGrGSMYDR
Second: SLGSVQAPSYGARPVSSAASVYAGAGGSGSrISVSR
The “Fold change KO/WT” value of the first is higher: -0.2245 for the first, -1.494 for the second.

“VPASPQSQSSSQSPLTPrPLSAEAFCPSPVTPRFQSPDPYSRPPSRPQSR” was tested, and the “Fold change KO/WT” value was -2.744.

What follows are substances tested on MCF7 CARM1 KO cells (assay: Quantitative MS of ADMA-containing peptides in MCF7 CARM1 KO cells expressing CARM1 28-608 or CARM1 140-608, and in CARM1 KO). Conditions: CARM1 140-608 versus WT, mean of three replicates (log2).
Type: cell-based, human

First: AMLPGSPLFTrAPPPK
Second: EHGAAASErLQLGTPPPLLAArLVPPR
The “CARM1 140-608/WT” value of the first is lower: -2.658 for the first, -0.1041 for the second.

Same assay, conditions: CARM1 140-608 vs WT, mean of 3 replicates (log2 scale)

Going from AGGAASGGGGNSWDLPGSHVrLPGR to AGIGVYWGPGHPLNVGIrLPGR, the “CARM1 140-608/WT” value rises from -0.7799 to -0.6349.

MGTPVPRPPQDMGQIGVrTPLGPR was tested, and the “CARM1 140-608/WT” value was -1.0135.

Same assay, conditions: CARM1 140-608 vs WT, mean of 3 replicates, log2

Compared with AGSQGGrGGGAQAAAR, SPYTTTrYGSPINTFTVRPGTR is lower in “CARM1 140-608/WT” value: 0.1432 for the first, -0.1037 for the second.

Same assay, conditions: KO versus WT, mean of three replicates (log2)

Going from AMLPGSPLFTrAPPPK to EHGAAASErLQLGTPPPLLAArLVPPR, the KO/WT rises from -3.62 to -0.4942.

Same assay, conditions: KO vs WT, mean of 3 replicates (log2 scale)

Compared with AGGAASGGGGNSWDLPGSHVrLPGR, AGIGVYWGPGHPLNVGIrLPGR is higher in KO/WT: -0.9676 for the first, -0.8432 for the second.

For MGTPVPRPPQDMGQIGVrTPLGPR, the KO/WT was -2.444.

Same assay, conditions: KO vs WT, mean of 3 replicates, log2

Going from AGSQGGrGGGAQAAAR to SPYTTTrYGSPINTFTVRPGTR, the KO/WT falls from 0.7684 to -2.259.

Same assay, conditions: difference of log2 means, CARM1 140-608 vs WT

For AFSSrSYTSGPGSrISSSSFSR, the “CARM1 140-608/WT” value was -1.259.

Same assay, conditions: difference of log2 means, KO vs WT

For AFSSrSYTSGPGSrISSSSFSR, the KO/WT was -1.022.

Same assay, conditions: mean, CARM1 140-608 versus WT (log2 scale)

With ACLTSGTPGPrAQLTAVTPDTR the “CARM1 140-608/WT” value was -1.022.

Same assay, conditions: mean, CARM1 KO versus WT (log2 scale)

Work on ACLTSGTPGPrAQLTAVTPDTR yielded a KO/WT of -1.3764.

Same assay, conditions: ratio on log2 scale, mean of 3 replicates

Going from AGGLLGTGSGLNLrMAGPQGLDLAPILR to ICEGIrPQIMNGPLHPRPLVALLDGR, the “CARM1 140-608/WT” value falls from -0.05646 to -0.2372.

Going from AGGLLGTGSGLNLrMAGPQGLDLAPILR to ICEGIrPQIMNGPLHPRPLVALLDGR, the KO/WT rises from -2.802 to -0.9025.
